For two compounds, EC50 results are on record in BindingDB's records for doi:10.7270/Q2TB15DB (Burnham Center For Chemical Genomics, 2011).

Broadly, the EC50 is the concentration needed to bring the measured effect to its halfway point. Read a low EC50 as a more potent agent.

This test deals with T1, Endoribonuclease toxin MazF (Escherichia coli (strain K12), UniProt P0AE70).
T1 sequence (P0AE70 whole entry): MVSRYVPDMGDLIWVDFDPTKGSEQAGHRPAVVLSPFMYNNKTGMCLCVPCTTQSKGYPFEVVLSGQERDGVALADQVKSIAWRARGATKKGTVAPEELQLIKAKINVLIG
The test is described as follows: fluorescent RNA oligo signal without MazF, dose response, counter-screen for MazEF activator project, biochemical, fluorescence, single-stranded RNase substrate (AID 588502). Background: Counterscreens check selectivity or assay interference.

`CCN1C(=O)C(C=NN=Cc2ccccc2)c2ccc(C3=NNC(=O)CC3)cc21` (configuration not stated) [benzaldehyde {[1-ethyl-2-oxo-6-(6-oxo-1,4,5,6-tetrahydro-3-pyridazinyl)-1,2-dihydro-3H-indol-3-ylidene]methyl}hydrazone] had an EC50 of more than 99 µM.

The compound `CCOC(=O)c1c(NC=C2C(=O)NC(=O)NC2=O)sc2c1CCC2` [ethyl 2-{[(1E)-(2,4,6-trioxohexahydropyrimidin-5-yl)methylene]amino}-5,6-dihydro-4H-cyclopenta[b]thiophene-3-carboxylate] had an EC50 of more than 99 µM.
